ChEMBL document CHEMBL1201862, “PubChem BioAssay data set” (2004)
Several values for one entry are separate records, joined by “and”; a condition that tells them apart may be missing. Equal entries are not always repeated. Activity calls are given as the source filed them.

Assays:
[1] = biological target: 1-phosphatidylinositol 4,5-bisphosphate phosphodiesterase gamma-1 (Homo sapiens, UniProt P19174); assay: Counterscreen for inhibitors of phospholipase C isozymes (PLC-B3): Fluorescence-based biochemical high throughput dose response assay to identify inhibitors of phospholipase C isozymes (PLC-gamma1).
Sequence of 1-phosphatidylinositol 4,5-bisphosphate phosphodiesterase gamma-1 (P19174 whole entry): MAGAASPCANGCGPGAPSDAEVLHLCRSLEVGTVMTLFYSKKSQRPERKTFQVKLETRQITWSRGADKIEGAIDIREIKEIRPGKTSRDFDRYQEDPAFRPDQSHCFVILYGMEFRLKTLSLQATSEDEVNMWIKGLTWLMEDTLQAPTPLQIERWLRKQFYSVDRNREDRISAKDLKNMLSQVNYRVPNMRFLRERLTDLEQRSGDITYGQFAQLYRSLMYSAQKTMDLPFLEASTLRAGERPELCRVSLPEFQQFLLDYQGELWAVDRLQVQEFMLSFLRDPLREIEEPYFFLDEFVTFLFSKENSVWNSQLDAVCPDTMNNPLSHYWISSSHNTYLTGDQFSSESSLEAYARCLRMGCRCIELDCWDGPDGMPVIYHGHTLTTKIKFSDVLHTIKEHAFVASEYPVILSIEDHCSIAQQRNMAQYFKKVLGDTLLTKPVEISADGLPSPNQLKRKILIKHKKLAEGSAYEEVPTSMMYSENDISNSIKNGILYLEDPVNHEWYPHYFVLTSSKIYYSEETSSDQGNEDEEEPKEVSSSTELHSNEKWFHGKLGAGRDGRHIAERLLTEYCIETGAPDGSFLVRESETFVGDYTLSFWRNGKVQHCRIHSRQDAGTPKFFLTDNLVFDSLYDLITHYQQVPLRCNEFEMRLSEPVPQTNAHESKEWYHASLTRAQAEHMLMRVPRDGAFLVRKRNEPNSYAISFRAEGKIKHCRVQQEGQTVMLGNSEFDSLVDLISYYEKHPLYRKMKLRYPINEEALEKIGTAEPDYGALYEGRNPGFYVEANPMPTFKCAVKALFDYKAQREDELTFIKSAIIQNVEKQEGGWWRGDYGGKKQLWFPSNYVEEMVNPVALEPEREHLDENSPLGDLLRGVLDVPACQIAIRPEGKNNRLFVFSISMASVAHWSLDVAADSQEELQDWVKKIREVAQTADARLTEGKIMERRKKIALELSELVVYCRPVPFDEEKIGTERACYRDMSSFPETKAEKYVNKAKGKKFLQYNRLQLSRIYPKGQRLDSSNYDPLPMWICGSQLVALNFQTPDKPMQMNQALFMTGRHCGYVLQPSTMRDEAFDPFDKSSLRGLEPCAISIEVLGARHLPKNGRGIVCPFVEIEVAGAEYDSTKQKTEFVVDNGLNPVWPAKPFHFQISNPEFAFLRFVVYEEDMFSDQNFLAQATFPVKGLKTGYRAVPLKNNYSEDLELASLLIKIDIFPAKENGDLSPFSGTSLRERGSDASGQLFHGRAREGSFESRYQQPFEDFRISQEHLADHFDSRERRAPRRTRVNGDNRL

[2] = biological target: 1-phosphatidylinositol 4,5-bisphosphate phosphodiesterase beta-3 (Homo sapiens, UniProt Q01970); assay: Fluorescence-based biochemical high throughput dose response assay to identify inhibitors of phospholipase C isozymes (PLC-B3).
Sequence of 1-phosphatidylinositol 4,5-bisphosphate phosphodiesterase beta-3 (Q01970 whole entry): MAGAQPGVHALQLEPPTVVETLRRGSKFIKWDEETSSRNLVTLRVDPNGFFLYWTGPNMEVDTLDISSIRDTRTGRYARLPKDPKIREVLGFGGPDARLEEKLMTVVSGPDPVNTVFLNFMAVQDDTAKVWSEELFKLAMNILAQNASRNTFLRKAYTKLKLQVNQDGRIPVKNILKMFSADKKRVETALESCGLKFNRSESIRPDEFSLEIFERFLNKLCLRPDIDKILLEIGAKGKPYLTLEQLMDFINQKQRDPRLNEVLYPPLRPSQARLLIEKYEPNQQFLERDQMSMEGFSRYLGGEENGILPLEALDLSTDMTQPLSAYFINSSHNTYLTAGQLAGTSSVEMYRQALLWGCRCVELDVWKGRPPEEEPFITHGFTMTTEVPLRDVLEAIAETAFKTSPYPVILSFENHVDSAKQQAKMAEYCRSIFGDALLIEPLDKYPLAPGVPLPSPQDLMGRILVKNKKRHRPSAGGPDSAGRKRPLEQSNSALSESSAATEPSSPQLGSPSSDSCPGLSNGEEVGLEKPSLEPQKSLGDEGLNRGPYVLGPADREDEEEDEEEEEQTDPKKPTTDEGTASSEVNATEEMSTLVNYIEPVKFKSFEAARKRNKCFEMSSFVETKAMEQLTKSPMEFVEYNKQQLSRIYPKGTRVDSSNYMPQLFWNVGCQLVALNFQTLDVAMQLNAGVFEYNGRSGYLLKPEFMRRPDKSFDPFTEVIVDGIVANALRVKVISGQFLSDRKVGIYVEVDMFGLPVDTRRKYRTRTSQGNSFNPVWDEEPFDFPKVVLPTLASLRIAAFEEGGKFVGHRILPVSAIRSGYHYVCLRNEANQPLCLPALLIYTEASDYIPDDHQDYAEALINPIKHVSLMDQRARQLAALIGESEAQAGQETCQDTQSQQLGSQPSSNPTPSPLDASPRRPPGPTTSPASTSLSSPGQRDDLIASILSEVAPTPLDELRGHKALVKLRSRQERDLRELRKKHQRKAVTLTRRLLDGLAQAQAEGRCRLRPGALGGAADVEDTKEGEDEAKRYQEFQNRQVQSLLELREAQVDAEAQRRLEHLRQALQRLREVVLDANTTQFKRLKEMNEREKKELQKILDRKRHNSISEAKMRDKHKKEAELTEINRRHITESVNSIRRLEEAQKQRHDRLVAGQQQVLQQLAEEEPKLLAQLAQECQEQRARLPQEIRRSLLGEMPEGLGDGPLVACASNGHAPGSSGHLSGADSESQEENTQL

cells = details: HEK293
[3] = biological target: T1, Beta-2 adrenergic receptor (Homo sapiens, UniProt P07550); assay: beta2AR agonists driving receptor internalization, dose response, cell-based, FAP fluorogen, flow cytometry, cherry pick 1 (AID 588763); assay type: functional
T1 sequence (P07550 whole entry): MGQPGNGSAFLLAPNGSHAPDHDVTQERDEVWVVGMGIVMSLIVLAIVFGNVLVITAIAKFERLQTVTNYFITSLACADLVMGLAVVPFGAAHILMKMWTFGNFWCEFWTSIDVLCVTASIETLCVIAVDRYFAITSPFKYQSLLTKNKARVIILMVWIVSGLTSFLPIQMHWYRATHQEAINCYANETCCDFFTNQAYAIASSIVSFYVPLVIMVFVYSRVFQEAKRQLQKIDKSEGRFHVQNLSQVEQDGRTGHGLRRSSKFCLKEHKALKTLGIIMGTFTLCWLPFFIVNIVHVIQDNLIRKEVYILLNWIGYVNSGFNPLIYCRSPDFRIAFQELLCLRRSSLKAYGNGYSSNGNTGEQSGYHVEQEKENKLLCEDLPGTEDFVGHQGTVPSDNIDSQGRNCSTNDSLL

[4] = biological target: T1, Beta-2 adrenergic receptor; assay: Dose response for HTS for Beta-2AR agonists via FAP method from Powderset1.; assay type: functional
[5] = test system: Streptococcus sp. 'group A'; assay: growth inhibition of control SK(-) GAS strain, dose response, counter-screen for streptokinase expression inhibitor project, luminescence, kanamycin, BacTiterGlo, confirmation (AID 1900); assay type: functional, organism-based
Streptococcus = assay: Group A Streptococcus viability loss, dose response, counter-screen for streptokinase expression inhibitor project, luminescence, BacTiterGlo (AID 1915); assay type: functional, organism-based;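 note: potency for reduction of bacterial viability or growth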
[6] = human group III sPLA2 inhibitors, dose response, biochemical, QFRET, IC50 (AID 743457);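 note: green fluorescence rise as the enzyme cleaves BODIPY PC-A2 in liposomes; potency for inhibition of the enzyme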
Beta-galactosidase = Beta-galactosidase (Escherichia coli, UniProt Q8VNN2); assay: Dose response counterscreen for EBI2 assay utilizing the enzyme, b-galactosidase.; assay type: functional
[7] = HEK293T cell cytotoxicity, dose response, cytotoxicity control for HIV Vif inhibitor project, cherry-picks (AID 652208); assay type: functional, cell-based
Estrogen receptor beta [8] = biological target: T2, Estrogen receptor beta (Homo sapiens, UniProt Q92731);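 note: recombinant ER-beta bound to coactivator SRC1 peptide in presence of estradiol agonist; inhibitors block coactivator peptide binding and lower the FRET signal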
T2 sequence (Q92731 whole entry): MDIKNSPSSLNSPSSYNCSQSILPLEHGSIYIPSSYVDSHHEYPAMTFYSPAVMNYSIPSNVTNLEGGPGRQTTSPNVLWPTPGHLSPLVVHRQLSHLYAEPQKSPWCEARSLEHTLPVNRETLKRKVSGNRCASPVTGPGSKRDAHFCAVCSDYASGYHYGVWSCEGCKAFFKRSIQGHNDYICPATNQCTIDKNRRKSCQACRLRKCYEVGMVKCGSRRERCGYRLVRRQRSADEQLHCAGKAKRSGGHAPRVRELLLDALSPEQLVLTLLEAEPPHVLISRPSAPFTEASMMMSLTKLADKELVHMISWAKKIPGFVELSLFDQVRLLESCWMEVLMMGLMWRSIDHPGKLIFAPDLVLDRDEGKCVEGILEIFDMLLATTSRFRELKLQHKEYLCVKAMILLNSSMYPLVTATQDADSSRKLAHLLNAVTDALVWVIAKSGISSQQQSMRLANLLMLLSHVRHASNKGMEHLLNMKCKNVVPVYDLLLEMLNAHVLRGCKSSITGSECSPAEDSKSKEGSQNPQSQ

Estrogen receptor beta [9] = biological target: T2, Estrogen receptor beta; assay: ERβ–SRC-3 coactivator interaction inhibitors, confirmation, orthogonal assay, biochemical, ELISA, streptavidin-HRP readout (AID 1060)
[10] = HepG2 cell cytotoxicity, dose response, cytotoxicity control, plate reader, cherry-pick, antagonist series (AID 743416); assay type: functional, cell-based
[11] = MC4R antagonists, dose response, counter-screen for LGR2 antagonist project, cell-based, plate reader, cherry pick (AID 743444); assay type: functional;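 note: transfected HEK 293 cells stimulated with alpha-MSH peptide; potency of inhibitors of the alpha-MSH evoked signal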
[12] = LGR2 antagonists, dose response, cell-based, HEK293, CRE-luciferase reporter, cherry pick, set 2 (AID 743343); assay type: functional;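 note: transfected cells were stimulated with diluted bursicon conditioned medium after compound addition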
[13] = HEK293 cell cytotoxicity, dose response, cytotoxicity control, plate reader, cherry-picked samples (AID 743446); assay type: functional, cell-based
Caspase-6 = biological target: T3, Caspase-6 (Homo sapiens, UniProt P55212); assay: human caspase-6 inhibitors, dose response, biochemical, VEID-R110 fluorescence, cherry-pick (AID 720632)
T3 sequence (P55212 whole entry): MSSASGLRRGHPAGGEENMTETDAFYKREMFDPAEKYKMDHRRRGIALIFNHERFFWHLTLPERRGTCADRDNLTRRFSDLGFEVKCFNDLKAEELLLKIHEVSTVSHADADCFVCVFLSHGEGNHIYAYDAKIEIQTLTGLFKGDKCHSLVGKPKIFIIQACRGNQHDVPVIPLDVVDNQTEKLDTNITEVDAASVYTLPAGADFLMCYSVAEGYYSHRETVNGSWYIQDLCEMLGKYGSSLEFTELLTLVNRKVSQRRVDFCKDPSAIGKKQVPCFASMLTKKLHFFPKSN

Genome polyprotein = Genome polyprotein (dengue virus type 2, UniProt P29990); assay: Dengue-2 NS5 methyltransferase inhibitors, primary screen, biochemical, confirmation dose response (AID 588689); assay type: functional
Sequence of Genome polyprotein (P29990 2492-3391 limits assumed): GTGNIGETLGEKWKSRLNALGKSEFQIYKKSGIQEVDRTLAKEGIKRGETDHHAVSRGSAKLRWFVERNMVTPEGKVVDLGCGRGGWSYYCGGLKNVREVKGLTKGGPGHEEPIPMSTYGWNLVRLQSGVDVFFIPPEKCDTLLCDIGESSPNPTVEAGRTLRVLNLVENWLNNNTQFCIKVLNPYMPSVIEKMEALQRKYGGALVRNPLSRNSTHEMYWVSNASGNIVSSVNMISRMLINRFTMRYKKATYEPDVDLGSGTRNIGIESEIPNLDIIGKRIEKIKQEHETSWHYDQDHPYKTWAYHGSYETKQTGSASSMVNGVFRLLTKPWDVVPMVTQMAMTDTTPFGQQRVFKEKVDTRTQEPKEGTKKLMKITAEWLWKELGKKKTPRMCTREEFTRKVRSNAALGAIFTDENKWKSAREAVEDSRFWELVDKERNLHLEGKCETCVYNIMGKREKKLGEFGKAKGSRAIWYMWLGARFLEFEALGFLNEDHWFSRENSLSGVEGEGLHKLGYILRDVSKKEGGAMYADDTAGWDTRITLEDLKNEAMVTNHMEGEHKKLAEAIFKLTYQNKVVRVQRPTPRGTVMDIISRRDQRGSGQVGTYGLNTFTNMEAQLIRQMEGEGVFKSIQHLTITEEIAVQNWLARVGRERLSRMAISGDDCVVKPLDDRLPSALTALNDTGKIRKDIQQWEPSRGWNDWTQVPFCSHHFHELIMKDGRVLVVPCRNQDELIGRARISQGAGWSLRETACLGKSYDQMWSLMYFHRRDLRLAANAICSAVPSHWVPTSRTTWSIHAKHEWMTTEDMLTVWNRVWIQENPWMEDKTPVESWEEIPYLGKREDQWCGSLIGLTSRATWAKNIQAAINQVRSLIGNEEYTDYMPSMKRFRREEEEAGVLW

Caspase-7 = Caspase-7 (Homo sapiens, UniProt P55210); assay: human caspase-7 inhibitors, dose response, selectivity assay for caspase-6 inhibitor project, biochemical, DEVD-R110 fluorescence, cherry-pick (AID 743295)
Caspase-3 = biological target: T4, Caspase-3 (Homo sapiens, UniProt P42574); assay: caspase-3 enzyme inhibitors, selectivity check, dose response, selectivity assay for caspase-6 allosteric inhibitor project, biochemical, fluorescence, cherry-picked samples (AID 743291)
T4 sequence (P42574 whole entry): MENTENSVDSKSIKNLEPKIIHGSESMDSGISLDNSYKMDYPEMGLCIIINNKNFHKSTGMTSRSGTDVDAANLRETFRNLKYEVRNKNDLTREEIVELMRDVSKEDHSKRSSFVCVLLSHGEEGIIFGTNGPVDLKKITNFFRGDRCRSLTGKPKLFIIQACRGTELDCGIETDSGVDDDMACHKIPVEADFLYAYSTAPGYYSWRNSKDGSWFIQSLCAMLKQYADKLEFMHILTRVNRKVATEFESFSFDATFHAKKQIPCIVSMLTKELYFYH

[14] = cytotoxicity in COV434 cells, dose response, cytotoxicity control for PAX8 inhibitor project, cell-based, plate reader, dry powder, SA7 (AID 743145); assay type: functional
Paired box protein Pax-8 = Paired box protein Pax-8 (Homo sapiens, UniProt Q06710); assay: inhibitors of PAX8-driven TPO luciferase reporter, dose response, RMG-I cells, cherry-pick (AID 687027); assay type: functional, cell-based;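 note: luciferase reporter driven by Pax8 target thyroperoxidase promoter measured by SteadyGlo luminescence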
Sequence of Paired box protein Pax-8 (Q06710 whole entry): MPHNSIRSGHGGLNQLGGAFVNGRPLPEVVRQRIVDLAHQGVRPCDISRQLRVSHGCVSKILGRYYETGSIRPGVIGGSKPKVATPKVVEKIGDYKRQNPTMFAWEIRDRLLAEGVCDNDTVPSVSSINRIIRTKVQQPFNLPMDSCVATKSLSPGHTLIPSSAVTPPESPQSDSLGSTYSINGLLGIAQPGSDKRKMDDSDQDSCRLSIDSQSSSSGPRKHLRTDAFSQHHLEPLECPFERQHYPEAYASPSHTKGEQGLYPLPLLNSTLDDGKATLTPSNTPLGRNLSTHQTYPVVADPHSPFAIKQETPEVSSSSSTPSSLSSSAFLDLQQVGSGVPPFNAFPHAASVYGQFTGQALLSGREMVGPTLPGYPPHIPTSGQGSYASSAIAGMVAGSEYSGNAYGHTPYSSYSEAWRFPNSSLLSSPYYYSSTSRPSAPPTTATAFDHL

[15] = control 3'UTR Renilla luciferase suppression, dose response, counter-screen for Shn3 inhibitor project, cell-based, Clone20-Shn3RL, cherry-picked (AID 624133); assay type: functional
[16] = A549 cell cytotoxicity, dose response, cytotoxicity control, plate reader, cherry-pick, antagonist series (AID 743412); assay type: functional, cell-based
[17] = PAX5 activity inhibitors, dose response, selectivity assay for PAX8 inhibitor project, cell-based, plate reader, dry powder samples (AID 743047); assay type: functional;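 note: HEK293 cells carrying a Pax5 driven CD19 promoter luciferase reporter; potency of inhibitors that lower reporter luminescence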
[18] = reduction of Shn3 3'UTR firefly luciferase signal, dose response, Schnurri-3 inhibitor project, cell-based, Clone20 osteoblasts, cherry-pick, set 2 (AID 720490); assay type: functional;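 note: actives lower the luminescence signal as inhibitors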
[19] = cytotoxicity in COV362 ovarian cancer cells, dose response, cytotoxicity control for PAX8 inhibitor project, cell-based, plate reader, dry powder, SA12 (AID 743144); assay type: functional
[20] = PAX2 cell-based inhibition, dose response, selectivity assay for PAX8 inhibitor project, plate reader, dry powder samples (AID 743048); assay type: functional;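 note: HEK293 cells carrying a WT1 promoter luciferase reporter driven by expressed Pax2; potency is for inhibition of Pax2 driven reporter signal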
[21] = cytotoxicity dependent on PAX8, dose response, cell-based, plate reader, dry powder (AID 743049); assay type: functional
[22] = cytotoxicity in OV-90 ovarian cancer cells, dose response, PAX8 inhibitor project, cell-based, plate reader, dry powder, SA8 (AID 743149); assay type: functional
[23] = Shn3 3'UTR reporter inhibitors, dose response, cell-based, Clone20 osteoblasts, firefly luciferase, cherry-picked (AID 624132); assay type: functional;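 note: firefly luciferase luminescence from reporter carrying the Shn3 3'UTR in osteoblasts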
[24] = IOSE-T80 ovarian epithelial cell cytotoxicity, dose response, cytotoxicity control for PAX8 inhibitor project, plate reader, dry powder samples (AID 743045); assay type: functional, cell-based
HEK293 = assay: inhibitors of LMP1-driven NF-kB reporter, dose response, cell-based, HEK293, luciferase, cherry-pick (AID 588343); assay type: functional; details: Homo sapiens
[25] = HEK293 cell viability, dose response, counter-screen for EBV LMP1 inhibitor project, dry powder, set 2 (AID 624374); assay type: functional
[26] = lymphoblastoid cell cytotoxicity, dose response, cytotoxicity control, plate reader, dry powder, set 2 (AID 624367); assay type: functional
[27] = A2780 ovarian cancer cell cytotoxicity, dose response, cytotoxicity control, plate reader, dry powder samples (AID 743046); assay type: functional, cell-based
[28] = cytotoxicity in OVCAR8 ovarian cancer cells, dose response, PAX8 project, cell-based, plate reader, dry powder samples (AID 743197); assay type: functional; details: OVCAR-8
[29] = biological target: Metabotropic glutamate receptor 3 (Rattus norvegicus, UniProt P31422); assay: mGlu3 NAM potency via calcium readout, dose response, mGlu3 NAM project, TREx293 cells, Galpha15, calcium flux (AID 651840); assay type: functional
[30] = biological target: Endoplasmic reticulum aminopeptidase 1 (Homo sapiens, UniProt Q9NZ08); assay: ERAP1 aminopeptidase inhibitors, dose response, biochemical, cherry-pick, set 2, plate reader (AID 743314)
[31] = Late stage assay provider results from the probe development effort to identify selective inhibitors of heat shock protein 90 (HSP90): Absorbance-based cell proliferation assay in SKBR3 cells.; assay type: functional; details: SK-BR-3
[32] = Late stage assay provider results from the probe development effort to identify selective inhibitors of heat shock protein 90 (HSP90): Absorbance-based cell proliferation assay in MCF7 cells.; assay type: functional
[33] = T. cruzi growth inhibition in host cells, dose response, cell-based, plate reader, dry powder, set 2 (AID 652275); assay type: functional
[34] = A549 cell cytotoxicity, dose response, cytotoxicity control, cherry-picks, 26 µM top dose (AID 1053119); assay type: functional, cell-based
[35] = HEK293 cell cytotoxicity, dose response, cytotoxicity control, cherry-picks, set 5 (AID 1053117); assay type: functional, cell-based
[36] = HepG2 cell cytotoxicity, dose response, cytotoxicity control, cherry-picks, set 5 (AID 1053118); assay type: functional, cell-based
[37] = Late stage assay provider results from the probe development effort to identify inhibitors of Protein Arginine Deaminase 4 (PAD4): cell-based absorbance-based assay to assess cytotoxicity of test compounds.; assay type: functional

O=C1C[S+]([O-])CN1c1ccc(Oc2ccccc2)cc1 (centres undefined)
IC50 [1]: 12.5 µM (inactive)
IC50 [2]: > 122 µM (inactive)

CCOCCCN=C(S)N1CCCN(c2nc3cc(C)c(C)cc3cc2C#N)CC1
AC50 (cells): > 52 µM (inactive)

Cc1ccc(OCC(=O)Nc2ccc(-c3nc4ncccc4o3)cc2)c(C)c1
EC50 [3]: 316 nM (active) and 92.7 nM (active)
EC50 [4]: 0.503 µM (active)

Cc1ccc(C(=O)NC(=S)NNC(=O)c2ccccc2O)cc1
EC50 [5]: 1.29 µM (active)
EC50 (Streptococcus): 5.63 µM (active)
IC50 [6]: > 122 µM (inactive)

O=C(/C=C/c1ccc([N+](=O)[O-])cc1)N1CCN(S(=O)(=O)c2cccs2)CC1
IC50 (Beta-galactosidase): > 80 µM (inactive)

CCOc1c(C(N)=O)c(-c2ccccc2)c2c(O)nc3ccccc3n12
AC50 [7]: 49.9 µM (active)
IC50 (Estrogen receptor beta [8]): 33.6 µM (not active)
IC50 (Estrogen receptor beta [9]): > 50 µM (not active)

COc1ccc(NC(=O)Nc2cccc([N+](=O)[O-])c2)cc1Cl
AC50 [10]: 26.8 µM (active)
AC50 [11]: 34.3 µM (active)
AC50 [12]: 33.1 µM (active)
AC50 [13]: > 52 µM (inactive)

CC(Cc1ccc(O)cc1)NCC(O)c1ccc(O)c(O)c1 (centres undefined)
EC50 [3]: 553 nM (active)
AC50 (Caspase-6): 3.68 µM (active)
IC50 (Genome polyprotein): > 100 µM (active)
AC50 (Caspase-7): > 70 µM (inactive)
AC50 (Caspase-3): 24.5 µM (active)

CCCn1c(C)cc(C(=O)CN2C(=O)c3ccccc3S2(=O)=O)c1C
AC50 [14]: > 100 µM (inactive)
AC50 (Paired box protein Pax-8): 3.55 µM (active)
AC50 [11]: 0.798 µM (active)
AC50 [15]: 26.8 µM (active)
AC50 [16]: > 52 µM (inactive)
AC50 [12]: 0.69 µM (active)
AC50 [17]: 3.24 µM (active)
AC50 [18]: 9.79 µM (active)
AC50 [19]: 77.7 µM (active)
AC50 [20]: 4.42 µM (active)
AC50 [21]: 55.7 µM (active)
AC50 [22]: 82.5 µM (active)
AC50 [23]: 2.98 µM (active)
AC50 [24]: 81.2 µM (active)
AC50 (HEK293): 0.211 µM (active)

COc1cccc(C#Cc2ccc([C@@H]3[C@H](C#N)N(C(=O)c4ccccn4)[C@H]3CO)cc2)c1
AC50 [14]: > 70 µM (inactive)
AC50 (Paired box protein Pax-8): 11.9 µM (active)
AbsAC35 [25]: 296.86 µM
AC50 [17]: > 70 µM (inactive)
AC50 [20]: > 70 µM (inactive)
AbsAC35 [26]: 55.61 µM
AC50 [21]: 35.1 µM (active)
AC50 [27]: 12.7 µM (active)
AC50 [28]: 63.7 µM (active)

COc1ccc(C#Cc2ccc(C(=O)N3CCCC(C)(O)C3)cc2)cc1 (centres undefined)
IC50 [29]: 0.525 µM

CCC(=O)N1[C@@H]2c3ccc(/C=C/c4ccccc4)c(=O)n3C[C@H]1[C@H](CO)[C@H]2C(=O)N(C)C
AC50 [30]: 9.44 µM (active)

COC(=O)c1cccc(COc2ccc3cc(Br)c(=O)oc3c2)c1
IC50 [31]: > 100 µM (inactive)
IC50 [32]: > 100 µM (inactive)

CC(C)N1CC2(CN(Cc3ccc(-c4ccccc4)cc3)C2)Oc2c(NC(=O)c3ccncc3)cccc2C1=O
AC50 [33]: 0.00131 µM (active)

C[C@H](CO)N1C[C@H](C)[C@@H](CN(C)C(=O)Nc2cccc3ccccc23)Oc2c(NC(=O)Nc3ccc(C(F)(F)F)cc3)cccc2C1=O
AC50 [34]: > 52 µM (inactive)
AC50 [35]: > 52 µM (inactive)
AC50 [36]: 34.4 µM (active)

NC1=CC(=O)c2ccc(-c3cccc(C(=O)O)n3)nc2C1=O
CC50 [37]: 26.5 µM (inactive)
